In US12447171B2 (CELGENE QUANTICEL RESEARCH, INC., priority 2019, dated 2025):
pEC50: −log10 of the molar value.

What was measured:
MV4-11 xenograft models = experiment: Disseminated MV4-11 xenograft survival study; type: in vivo; details: MV4-11, NCG mice, vehicle=29.5
Procedure: LEED models oral administration of AZA, while HELD models intravenous or subcutaneous administration of AZA.
On each day of dosing, an appropriate amount of gilteritinib was dissolved in 0.5% methylcellulose in DI water to yield a dosing solution at 0.4 mg/mL. Each week, an appropriate amount of venetoclax was dissolved in 10% ethanol:30% PEG400:60% phosal 50 propylene glycol to yield a dosing solution at 10 mg/mL. […] Each test mouse received 5×10^6 MOLM-13 cells or 10^7 MV4-11 cells (0.2 mL cell suspension) by tail vein injection. Dosing was initiated three days after tumor cell inoculation, which was designated as Day 1 of the study. […] […] Vehicle was administered both IP and PO. The dosing volume for all treatments was 10 mL/kg, scaled to the weight of each individual animal.
Animals were monitored individually for an endpoint of moribundity due to progression of the leukemia. Full hind limb paralysis, severe ocular proptosis, or moribundity was considered sufficient for euthanasia due to tumor progression. Moribund animals were defined as sick animals unable to reach food and water. These deaths were classified as death on survival study. The time to endpoint (TTE), in days, was recorded for each mouse that died of its disease or was euthanized due to extensive tumor progression. […] An animal classified as having died from treatment-related (TR) causes was assigned a TTE value equal to the day of death. An animal classified as having died from non-treatment-related (NTR) causes, or used for sampling before endpoint, was excluded from TTE calculations and all further analyses. The median TTE value was calculated for each group. The median TTE of treated mice was expressed as a percentage of the median TTE of the control mice (% T/C), and the increase in life span (ILS) was calculated as: ILS=% T/C−100%, where T=median TTE treated, and C=median TTE control. Thus, if T=C, ILS=0%.
Animals were weighed daily on Days 1-5, then twice per week until the completion of the study. […] Individual body weight loss was monitored as per protocol and any animal that exceeded the limits for acceptable body weight loss was euthanized. Group mean body weight loss also was monitored as per protocol. Dosing was suspended in any group that exceeded the limits for acceptable mean body weight loss. If mean body weight recovered, then dosing may be resumed in that group, but at a lower dosage or less frequent dosing schedule. […] Survival was analyzed by the Kaplan-Meier method, based on TTE values. The logrank (Mantel-Cox) and Gehan-Breslow-Wilcoxon tests determined the significance of the difference between the overall survival experiences (survival curves) of two groups, based on TTE values.

BaF-FLT3(D835Y) = experiment: Cell viability assay (Cell Titer-Glo), BaF3 cells expressing FLT3; type: cell-based; details: Mus musculus
BaF-FLT3-ITD = experiment: as above; type: cell-based; details: Mus musculus
[1] = tested on: activating transcription factor 3 (ATF3); experiment: ATF3 expression (RNAseq, real-time PCR) in MV4-11 cells; type: cell-based
Procedure: (§1) After treatment, cells were recovered, washed once in PBS, and flash frozen as cell pellets. Cell pellets were sent to Canopy Biosciences for RNA extraction and library preparation and sequencing. RNA was extracted using the Qiagen RNeasy Mini Kit according to manufacturer's instructions. A modified protocol was used to preserve miRNA species. Total RNA Seq libraries were prepared using 200 ng of total RNA and the NEBNext Ultra II Directional Library prep kit. rRNA depletion was performed using an RNase-H based method (New England Biolabs, Ipswich, MA). MCL1 RNA levels in other cell lines were quantified by RNASeq using standard methods.
Libraries were multiplexed and sequenced using Illumina HiSeq. All gene counts were then imported into the R/Bioconductor package EdgeR and TMM normalization size factors were calculated to adjust for samples for differences in library size. Ribosomal genes and genes not expressed in the smallest group size minus one samples greater than one count-per-million were excluded from further analysis. […] Global perturbations in known Gene Ontology (GO) terms and KEGG pathways were detected using the R/Bioconductor package GAGE to test for changes in expression of the reported log 2 fold-changes reported by Limma in each term versus the background log 2 fold-changes of all genes found outside the respective term. […]

MV4-11 cells = experiment: RNASeq analysis of MV4-11 cells; type: cell-based; details: MV4-11, 1 μM 5-azacytidine
Procedure: as §1
Libraries were multiplexed and sequenced using Illumina HiSeq. All gene counts were then imported into the R/Bioconductor package EdgeR and TMM normalization size factors were calculated to adjust for samples for differences in library size. Ribosomal genes and genes not expressed in the smallest group size minus one samples greater than one count-per-million were excluded from further analysis. Differential expression analysis was then performed to analyze for differences between conditions and the results were filtered for only those genes with Benjamini-Hochberg false-discovery rate adjusted p-values less than or equal to 0.05. Global perturbations in known Gene Ontology (GO) terms and KEGG pathways were detected using the R/Bioconductor package GAGE to test for changes in expression of the reported log 2 fold-changes reported by Limma in each term versus the background log 2 fold-changes of all genes found outside the respective term. The R/Bioconductor package heatmap and Pathview was used to display heatmaps or annotated KEGG graphs across groups of samples for each GO term or KEGG pathway (respectively) with a Benjamini-Hochberg false-discovery rate adjusted p-value less than or equal to 0.05. To find differentially expressed genes, the raw counts were variance stabilized with the R/Bioconductor package DESeq2.

With Nc1ncn([C@@H]2O[C@H](CO)[C@@H](O)[C@H]2O)c(=O)n1 [5-azacytidine, 4-amino-1-B-D-ribofuranosyl-1,3,5-triazin-2(1H)-one] the Median survival (MV4-11 xenograft models; HELD 5-azacytidine 3 mg/kg qd×5, alone or with venetoclax or midostaurin 100 mg/kg qd×21) was 35, the Median survival (MV4-11 xenograft models; LEED 5-azacytidine 1 mg/kg qd×5×3, alone or with venetoclax or midostaurin 100 mg/kg qd×21) was 35 and the pEC50 (BaF-FLT3(D835Y)) was 6.34. The pEC50 (BaF-FLT3-ITD) was 6.22, the “ATF3 expression (real-time PCR)” value ([1]; MV4-11, 0.3 μM 5-azacytidine, 24 or 48 hours) was “not sufficient to induce ATF3 expression” and the ATF3 expression increase ([1]; RNAseq, MV4-11, 1 μM, 48 hours) was “two-fold”. The “Mean logFC, Kegg pathway Antigen processing and presentation” value (MV4-11 cells; 24 h) was −3.39, the “Mean logFC, Kegg pathway Biosynthesis of unsaturated fatty acids” value (MV4-11 cells; 24 h) was −3.26 and the “Mean logFC, Kegg pathway Carbon metabolism” value (MV4-11 cells; 24 h) was −3.35. The “Mean logFC, Kegg pathway Cardiac muscle contraction” value (MV4-11 cells; 24 h) was −2.61, the “Mean logFC, Kegg pathway Cell cycle” value (MV4-11 cells; 24 h) was −5.75 and the “Mean logFC, Kegg pathway Cellular senescence” value (MV4-11 cells; 24 h) was −2.69. For the same compound, the “Mean logFC, Kegg pathway DNA replication” value (MV4-11 cells; 24 h) was −4.45, the “Mean logFC, Kegg pathway Fatty acid elongation” value (MV4-11 cells; 24 h) was −2.87 and the “Mean logFC, Kegg pathway Fatty acid metabolism” value (MV4-11 cells; 24 h) was −3.43. The “Mean logFC, Kegg pathway Lysasome” value (MV4-11 cells; 24 h) was −2.82, the “Mean logFC, Kegg pathway Metabolic pathways” value (MV4-11 cells; 24 h) was −5.79 and the “Mean logFC, Kegg pathway Mismatch repair” value (MV4-11 cells; 24 h) was −2.98. The “Mean logFC, Kegg pathway Necroptosis” value (MV4-11 cells; 24 h) was −3.78, the “Mean logFC, Kegg pathway Oxidative phosphorylation” value (MV4-11 cells; 24 h) was −7.32 and the “Mean logFC, Kegg pathway Phagosome” value (MV4-11 cells; 24 h) was −4.13. The “Mean logFC, Kegg pathway Proteasome” value (MV4-11 cells; 24 h) was −4.41, the “Mean logFC, Kegg pathway Protein export” value (MV4-11 cells; 24 h) was −3.19 and the “Mean logFC, Kegg pathway Protein processing in endoplasmic reticulation” value (MV4-11 cells; 24 h) was −4.96. For the same compound, the “Mean logFC, Kegg pathway RNA transport” value (MV4-11 cells; 24 h) was −3.08, the “Mean logFC, Kegg pathway Regulation of actin cytoskeleton” value (MV4-11 cells; 24 h) was −2.46 and the “Mean logFC, Kegg pathway Ribosome” value (MV4-11 cells; 24 h) was −10.50. For the same compound, the “Mean logFC, Kegg pathway Spliceasome” value (MV4-11 cells; 24 h) was −4.10, the “Mean logFC, Kegg pathway Taste transduction” value (MV4-11 cells; 24 h) was −2.44 and the “Mean logFC, Kegg pathway Terpenoid backbone biosynthesis” value (MV4-11 cells; 24 h) was −2.48. For the same compound, the “Mean logFC, Kegg pathway p53 signaling pathway” value (MV4-11 cells; 24 h) was −2.42, the differentially expressed genes (MV4-11 cells; 24 hours) was 133 and the KEGG pathways regulated (MV4-11 cells; 48 hours) was “No significant differences”. For the same compound, the differentially expressed genes (MV4-11 cells; 48 hours) was 226.
